pKi: −log10 of the molar value.
Biological target: Sodium-dependent dopamine transporter (Rattus norvegicus, UniProt P23977)
Assay: Radioligand Binding Assay
Details: not given
Procedure: The assay was initiated by the addition of membranes to binding buffer containing test compound, blocker, and radioligand. The samples were incubated in triplicate. Brandel cell harvesters were used to filter the samples over Whatman GF/B filters, which were presoaked in wash buffer. The 125I retained on the filters was measured in a gamma counter.

Sodium-dependent dopamine transporter, sequence (P23977 whole entry): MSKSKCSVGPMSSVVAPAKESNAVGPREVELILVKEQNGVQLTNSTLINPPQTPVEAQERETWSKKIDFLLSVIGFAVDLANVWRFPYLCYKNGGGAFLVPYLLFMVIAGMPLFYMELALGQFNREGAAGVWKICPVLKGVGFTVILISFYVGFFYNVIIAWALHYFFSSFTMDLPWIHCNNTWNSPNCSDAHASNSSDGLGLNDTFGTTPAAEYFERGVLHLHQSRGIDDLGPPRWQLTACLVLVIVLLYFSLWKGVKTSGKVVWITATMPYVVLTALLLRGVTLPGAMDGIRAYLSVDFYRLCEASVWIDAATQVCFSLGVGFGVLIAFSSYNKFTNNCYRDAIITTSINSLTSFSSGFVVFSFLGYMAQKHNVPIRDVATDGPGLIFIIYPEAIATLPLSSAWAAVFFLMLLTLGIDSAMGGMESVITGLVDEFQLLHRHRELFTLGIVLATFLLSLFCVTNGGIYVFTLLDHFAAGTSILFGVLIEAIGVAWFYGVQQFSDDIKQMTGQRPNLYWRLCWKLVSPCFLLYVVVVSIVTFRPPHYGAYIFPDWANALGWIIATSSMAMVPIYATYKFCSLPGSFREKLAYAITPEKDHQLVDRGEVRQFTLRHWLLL

Row | Structure (SMILES) | pKi
1 | C=C(Cc1ccccc1)CN1CCN(CCOC(c2ccccc2)c2ccccc2)CC1 [1-(2-benzylprop-2-en-1-yl)-4-[2-(diphenylmethoxy)ethyl]piperazine] | 6.39
2 | C=C(Cc1ccccc1)CN1CCN(CCOC(c2ccc(F)cc2)c2ccc(F)cc2)CC1 [1-(2-benzylprop-2-en-1-yl)-4-{2-[bis(4-fluorophenyl)methoxy]ethyl}piperazine] | 7.00
3 | CC(O)(Cc1ccccc1)CN1CCN(CCOC(c2ccc(F)cc2)c2ccc(F)cc2)CC1 (configuration not stated) [1-(4-{2-[bis(4-fluorophenyl)methoxy]ethyl}piperazin-1-yl)-2-methyl-3-phenylpropan-2-ol] | 7.24
4 | O=C(Cc1ccccc1)CN1CCN(CCOC(c2ccc(F)cc2)c2ccc(F)cc2)CC1 [1-(4-{2-[bis(4-fluorophenyl)methoxy]ethyl}piperazin-1-yl)-3-phenylpropan-2-one] | 8.19
5 | FC[C@@H](Cc1ccccc1)N1CCN(CCOC(c2ccc(F)cc2)c2ccc(F)cc2)CC1 [1-{2-[bis(4-fluorophenyl)methoxy]ethyl}-4-[(2R)-1-fluoro-3-phenylpropan-2-yl]piperazine] | 6.96
6 | FC[C@H](Cc1ccccc1)N1CCN(CCOC(c2ccc(F)cc2)c2ccc(F)cc2)CC1 [1-{2-[bis(4-fluorophenyl)methoxy]ethyl}-4-[(2S)-1-fluoro-3-phenylpropan-2-yl]piperazine] | 6.85
7 | CC(O)(Cc1ccccc1)CN1CCN(CCOC(c2ccccc2)c2ccccc2)CC1 (configuration not stated) [1-{4-[2-(diphenylmethoxy)ethyl]piperazin-1-yl}-2-methyl-3-phenylpropan-2-ol] | 6.82
8 | O=C(Cc1ccccc1)CN1CCN(CCOC(c2ccccc2)c2ccccc2)CC1 [1-{4-[2-(diphenylmethoxy)ethyl]piperazin-1-yl}-3-phenylpropan-2-one] | 8.00
9 | O=C(CN1CCN(CCOC(c2ccc(F)cc2)c2ccc(F)cc2)CC1)c1ccccc1 [2-(4-{2-[bis(4-fluorophenyl)methoxy]ethyl}piperazin-1-yl)-1-phenylethan-1-one] | 7.27
10 | O=C(CN1CCN(CCOC(c2ccccc2)c2ccccc2)CC1)c1ccccc1 [2-{4-[2-(diphenylmethoxy)ethyl]piperazin-1-yl}-1-phenylethan-1-one] | 6.35

Same assay, conditions: pH 7.4; 4 °C

Row | Structure (SMILES) | pKi
11 | C=C(CCN1CCN(CCOC(c2ccccc2)c2ccccc2)CC1)c1ccccc1 [1-[2-(diphenylmethoxy)ethyl]-4-(3-phenylbut-3-en-1-yl)piperazine] | 7.52
12 | C[C@H](Cc1ccccc1)CN1CCN(CCOC(c2ccc(F)cc2)c2ccc(F)cc2)CC1 [1-[(2R)-2-benzylpropyl]-4-{2-[bis(4-fluorophenyl)methoxy]ethyl}piperazine] | 7.77
13 | C[C@@H](Cc1ccccc1)CN1CCN(CCOC(c2ccc(F)cc2)c2ccc(F)cc2)CC1 [1-[(2S)-2-benzylpropyl]-4-{2-[bis(4-fluorophenyl)methoxy]ethyl}piperazine] | 7.77
14 | C=C(CCN1CCN(CCOC(c2ccc(F)cc2)c2ccc(F)cc2)CC1)c1ccccc1 [1-{2-[bis(4-fluorophenyl)methoxy]ethyl}-4-(3-phenylbut-3-en-1-yl)piperazine] | 7.74
15 | Fc1ccc(C(OCCN2CCN(C[C@H](F)Cc3ccccc3)CC2)c2ccc(F)cc2)cc1 [1-{2-[bis(4-fluorophenyl)methoxy]ethyl}-4-[(2R)-2-fluoro-3-phenylpropyl]piperazine] | 7.66
16 | CO[C@H](Cc1ccccc1)CN1CCN(CCOC(c2ccc(F)cc2)c2ccc(F)cc2)CC1 [1-{2-[bis(4-fluorophenyl)methoxy]ethyl}-4-[(2R)-2-methoxy-3-phenylpropyl]piperazine] | 7.57
17 | Fc1ccc(C(OCCN2CCN(C[C@@H](F)Cc3ccccc3)CC2)c2ccc(F)cc2)cc1 [1-{2-[bis(4-fluorophenyl)methoxy]ethyl}-4-[(2S)-2-fluoro-3-phenylpropyl]piperazine] | 8.57
18 | CO[C@@H](Cc1ccccc1)CN1CCN(CCOC(c2ccc(F)cc2)c2ccc(F)cc2)CC1 [1-{2-[bis(4-fluorophenyl)methoxy]ethyl}-4-[(2S)-2-methoxy-3-phenylpropyl]piperazine] | 7.54
19 | CC(O)(CCN1CCN(CCOC(c2ccc(F)cc2)c2ccc(F)cc2)CC1)c1ccccc1 (configuration not stated) [4-(4-{2-[bis(4-fluorophenyl)methoxy]ethyl}piperazin-1-yl)-2-phenylbutan-2-ol] | 8.40
20 | CC(O)(CCN1CCN(CCOC(c2ccccc2)c2ccccc2)CC1)c1ccccc1 (configuration not stated) [4-{4-[2-(diphenylmethoxy)ethyl]piperazin-1-yl}-2-phenylbutan-2-ol] | 8.15
21 | N[C@H](Cc1ccccc1)CN1CCN(CCOC(c2ccc(F)cc2)c2ccc(F)cc2)CC1 [(2R)-1-(4-{2-[bis(4-fluorophenyl)methoxy]ethyl}piperazin-1-yl)-3-phenylpropan-2-amine] | 7.70
22 | N[C@@H](Cc1ccccc1)CN1CCN(CCOC(c2ccc(F)cc2)c2ccc(F)cc2)CC1 [(2S)-1-(4-{2-[bis(4-fluorophenyl)methoxy]ethyl}piperazin-1-yl)-3-phenylpropan-2-amine] | 7.41

Reference: BindingDB's records for doi:10.1021/jm701270n (National Taiwan University, 2008)
